Measurements published in ChEMBL document CHEMBL1150218, “Antitubercular activity of triterpenoids from Lippia turbinata” (J Nat Prod, 2001).
In brackets after ≈: the same amount, converted by molar mass.

Experiments:
[1] = test system: Mycobacterium tuberculosis; assay: Antitubercular activity against Mycobacterium tuberculosis H37Rv ATCC 27294 by radiometric BACTEC 460 system; type: functional
Vero = assay: Cytotoxicity against african green monkey Vero cells; type: cell-based; conditions: Chlorocebus sabaeus

| SMILES | MIC [1] [µM] | IC50 (Vero) [µM] |
| --- | --- | --- |
| CCC(C)C(=O)O[C@@H]1CC(C)(C)C[C@H]2C3=CC[C@@H]4[C@]56CC[C@](O)(OC5)C(C)(C)[C@@H]6CC[C@@]4(C)[C@]3(C)CC[C@@]12C(=O)O (stereo not given in full) | 128 (≈ 73.1 µg/mL) | – |
| C/C=C(\C)C(=O)O[C@@H]1[C@@H](O)C(C)(C)C[C@H]2C3=CC[C@@H]4[C@]56CC[C@](O)(OC5)C(C)(C)[C@@H]6CC[C@@]4(C)[C@]3(C)CC[C@@]12C(=O)O | 128 (≈ 74.9 µg/mL) | – |
| C/C=C(/C)C(=O)O[C@@H]1[C@@H](O)C(C)(C)C[C@H]2C3=CC[C@@H]4[C@]56CC[C@](O)(OC5)C(C)(C)[C@@H]6CC[C@@]4(C)[C@]3(C)CC[C@@]12C(=O)O | 64 (≈ 37.4 µg/mL) | – |
| CC(C)=CC(=O)O[C@@H]1[C@@H](O)C(C)(C)C[C@H]2C3=CC[C@@H]4[C@]56CC[C@](O)(OC5)C(C)(C)[C@@H]6CC[C@@]4(C)[C@]3(C)CC[C@@]12C(=O)O | 128 (≈ 74.9 µg/mL) | – |
| C/C=C(/C)C(=O)O[C@@H]1CC(C)(C)C[C@H]2C3=CC[C@@H]4[C@]56CC[C@@](O)(OC5)C(C)(C)[C@@H]6CC[C@@]4(C)[C@]3(C)CC[C@@]12C(=O)O [CAMARIC ACID] | 64 (≈ 36.4 µg/mL) | – |
| C/C=C(/C)C(=O)O[C@@H]1CC(C)(C)C[C@H]2C3=CC[C@@H]4[C@@]5(C)CCC(=O)C(C)(C)[C@@H]5CC[C@@]4(C)[C@]3(C)CC[C@@]12C(=O)O [LANTADENE A] | 32 (≈ 17.7 µg/mL) | 15 |
| CC(C)=CC(=O)O[C@@H]1CC(C)(C)C[C@H]2C3=CC[C@@H]4[C@]56CC[C@@](O)(OC5)C(C)(C)[C@@H]6CC[C@@]4(C)[C@]3(C)CC[C@@]12C(=O)O [LANTANILIC ACID] | > 128 | – |
| CC1(C)CC[C@]2(C(=O)O)CC[C@]3(C)C(=CC[C@@H]4[C@]56CC[C@@](O)(OC5)C(C)(C)[C@@H]6CC[C@]43C)[C@@H]2C1 [LANTANOLIC ACID] | > 128 | – |
| CO[C@H]1/C=C/O[C@@]2(C)Oc3c(C)c(O)c4c(O)c(c(/C=N/N5CCN(C)CC5)c(O)c4c3C2=O)NC(=O)/C(C)=C\C=C\[C@H](C)[C@H](O)[C@@H](C)[C@@H](O)[C@@H](C)[C@H](OC(C)=O)[C@@H]1C [RIFAMPIN] | 0.3 (≈ 0.247 µg/mL) | – |
